Test results published in ChEMBL document CHEMBL4619767, “Precursor-Directed Biosynthesis and Fluorescence Labeling of Clickable Microcystins” (J Nat Prod, 2020).
Numbered stars: 1 amine (or outer) side, 2 acyl side, 3 side chain; on linkers, the order of the positions; unused ones are H or OH. Bridge positions count the residues as written; N and C are the ends. Square brackets hold non-standard residues; d marks the D form. Peptide text beside a SMILES is read from it. * marks the point of attachment. Adda = CO[C@@H](Cc1ccccc1)[C@@H](C)/C=C(C)/C=C/[C@H](N[*:1])[C@H](C)C(=O)[*:2]; dAsp(3S-Me) = C[C@H](C(=O)[*:3])[C@@H](N[*:1])C(=O)[*:2]; d(γGlu) = O=C(O)[C@@H](CCC(=O)[*:2])N[*:1]; NMeDha = C=C(NC)C(=O)O; Propargyl = C#CC*

What was measured:
HEK293 [1] = experiment: Cytotoxicity against OATP1B3 (-/-) HEK293 cells incubated for 48 hrs by sulforhodamine B assay; type: ADME, cell-based, Homo sapiens
HEK293 [2] = experiment: Cytotoxicity against OATP1B1 (-/-) HEK293 cells incubated for 48 hrs by sulforhodamine B assay; type: ADME, cell-based, Homo sapiens
[3] = Drug uptake in OATP1B3 (-/-) HEK293 cells at 100 nM measured up to 8 mins by fluorescence time-lapse microscopy; type: ADME, cell-based; details: human, hek293, 8 min, 0.1 µM
[4] = Drug uptake in OATP1B1 (-/-) HEK293 cells at 100 nM measured up to 8 mins by fluorescence time-lapse microscopy; type: ADME, cell-based; details: human, hek293, 8 min, 0.1 µM

SMILES	EC50 (HEK293 [1]) [nM]	EC50 (HEK293 [2]) [nM]	Drug uptake [3]	Drug uptake [4]
C=C1C(=O)N[C@H](C)C(=O)N[C@@H](Cc2ccc(OCc3cn(-c4cc5ccc(O)cc5oc4=O)nn3)cc2)C(=O)N[C@@H](C(=O)O)[C@H](C)C(=O)N[C@@H](CCCNC(=N)N)C(=O)N[C@@H](/C=C/C(C)=C/[C@H](C)[C@H](Cc2ccccc2)OC)[C@H](C)C(=O)N[C@@H](C(=O)O)CCC(=O)N1C	> 2000	> 2000	Not Active	Not Active
C#CCOc1ccc(C[C@@H]2NC(=O)[C@@H](C)NC(=O)C(=C)N(C)C(=O)CC[C@H](C(=O)O)NC(=O)[C@@H](C)[C@H](/C=C/C(C)=C/[C@H](C)[C@H](Cc3ccccc3)OC)NC(=O)[C@H](CCCNC(=N)N)NC(=O)[C@@H](C)[C@H](C(=O)O)NC2=O)cc1 (R[Adda][d(γGlu)][NMeDha][dA]Y(Propargyl)[dAsp(3S-Me)]-OH; lactam N-7)	> 2000	> 2000	–	–
C=C1C(=O)N[C@H](C)C(=O)N[C@@H](Cc2ccc(O)cc2)C(=O)N[C@@H](C(=O)O)[C@H](C)C(=O)N[C@@H](CCCNC(=N)N)C(=O)N[C@@H](/C=C/C(C)=C/[C@H](C)[C@H](Cc2ccccc2)OC)[C@H](C)C(=O)N[C@@H](C(=O)O)CCC(=O)N1C (R[Adda][d(γGlu)][NMeDha][dA]Y[dAsp(3S-Me)]-OH; lactam N-7)	> 2000	> 2000	–	–
